Key:
YbaA = target: T1, YbaA (Escherichia coli, UniProt P0AAQ6); experiment: surface plasmon resonance; format: binding
T1 construct: C-terminal His10 tag; purified by IMAC and size exclusion chromatography; printed peptide IVECWASDVPDGKVTDFR
T1 sequence (P0AAQ6 1-117): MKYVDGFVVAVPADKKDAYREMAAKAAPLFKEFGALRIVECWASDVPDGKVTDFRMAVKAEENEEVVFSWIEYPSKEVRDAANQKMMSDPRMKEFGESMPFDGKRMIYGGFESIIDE
Description: surface plasmon resonance on YbaA | Direct binding of CFX to YjdN or YbaA was further assessed by surface plasmon resonance

YjdN = target: T2, YjdN (Escherichia coli, UniProt P16681); experiment: surface plasmon resonance; format: binding
T2 construct: C-terminal His10 tag; purified by IMAC and size exclusion chromatography
T2 sequence (P16681 1-147): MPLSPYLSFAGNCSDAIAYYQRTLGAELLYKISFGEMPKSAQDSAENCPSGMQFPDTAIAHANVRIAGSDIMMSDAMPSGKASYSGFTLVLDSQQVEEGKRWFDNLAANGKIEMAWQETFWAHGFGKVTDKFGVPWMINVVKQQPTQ
Description: surface plasmon resonance on YjdN | Direct binding of CFX to YjdN or YbaA was further assessed by surface plasmon resonance

O=C(O)c1cn(C2CC2)c2cc(N3CCNCC3)c(F)cc2c1=O [compound 1, Ciprofloxacin]
Kd (YbaA): 1000 ± 340 nM | Kd (YjdN): 1400 ± 620 nM

Reference: doi:10.1101/2025.10.16.682360v1, “Live-Cell Chemoproteomic Profiling Identifies the Uncharacterised Protein YbaA as a Direct Target of Ciprofloxacin in Escherichia coli” (biorxiv, 2025)
